Reference: PubChem BioAssay (NCI)
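GI50 = concentration required for 50% inhibition of growth. Definition used: TGI = concentration required for complete inhibition of growth.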

Assays:
Test in all cases: growth of human tumour cells (NCI), 384-well format
NCI-H226 lung = test system: NCI-H226 lung
MALME-3M melanoma = test system: MALME-3M melanoma
SNB-19 CNS = test system: SNB-19 CNS
SK-MEL-5 melanoma = test system: SK-MEL-5 melanoma
RPMI-8226 leukemia = test system: RPMI-8226 leukemia
T-47D breast = test system: T-47D breast
UO-31 renal = test system: UO-31 renal
SN12C renal = test system: SN12C renal
OVCAR-5 ovarian = test system: OVCAR-5 ovarian
SR leukemia = test system: SR leukemia
HCT-15 colon = test system: HCT-15 colon
OVCAR-3 ovarian = test system: OVCAR-3 ovarian
CAKI-1 renal = test system: CAKI-1 renal
HT29 colon = test system: HT29 colon
SK-OV-3 ovarian = test system: SK-OV-3 ovarian
NCI-H460 NSCLC = test system: NCI-H460 NSCLC
A498 renal = test system: A498 renal
EKVX NSCLC = test system: EKVX NSCLC
MDA-MB-435 melanoma = test system: MDA-MB-435 melanoma
CCRF-CEM leukemia = test system: CCRF-CEM leukemia
HCT-116 colon = test system: HCT-116 colon
DU-145 prostate = test system: DU-145 prostate
MCF7 breast = test system: MCF7 breast
SF-539 CNS = test system: SF-539 CNS
TK-10 renal = test system: TK-10 renal
SF-268 CNS = test system: SF-268 CNS
HOP-92 NSCLC = test system: HOP-92 NSCLC
M14 melanoma = test system: M14 melanoma
K-562 leukemia = test system: K-562 leukemia
BT-549 breast = test system: BT-549 breast
SK-MEL-28 melanoma = test system: SK-MEL-28 melanoma
SW-620 colon = test system: SW-620 colon
PC-3 prostate = test system: PC-3 prostate
OVCAR-8 ovarian = test system: OVCAR-8 ovarian
A549 NSCLC = test system: A549 NSCLC
U251 glioblastoma = test system: U251 glioblastoma
HS 578T breast = test system: HS 578T breast
COLO 205 colon = test system: COLO 205 colon
MDA-MB-231 breast = test system: MDA-MB-231 breast
SK-MEL-2 melanoma = test system: SK-MEL-2 melanoma
OVCAR-4 ovarian = test system: OVCAR-4 ovarian
HOP-62 NSCLC = test system: HOP-62 NSCLC
SF-295 CNS = test system: SF-295 CNS
LOX IMVI melanoma = test system: LOX IMVI melanoma
ACHN renal = test system: ACHN renal
SNB-75 CNS = test system: SNB-75 CNS
HL-60(TB) leukemia = test system: HL-60(TB) leukemia

## CCN(CC)CCNC(=O)c1c(C)[nH]c(/C=C2\C(=O)Nc3ccc(F)cc32)c1C
NCI-H226 lung
  GI50: 1.61 µM
  TGI: 4.48 µM
MALME-3M melanoma
  GI50: 1.17 µM
  TGI: 2.41 µM
SNB-19 CNS
  GI50: 6.08 µM
  TGI: 13.7 µM
SK-MEL-5 melanoma
  GI50: 1.24 µM
  TGI: 2.5 µM
RPMI-8226 leukemia
  GI50: 1.38 µM
  TGI: 2.78 µM
T-47D breast
  GI50: 4.24 µM
  TGI: 8.33 µM
UO-31 renal
  GI50: 2.17 µM
  TGI: 6.36 µM
SN12C renal
  GI50: 0.931 µM
  TGI: 10.4 µM
OVCAR-5 ovarian
  GI50: 2.67 µM
  TGI: 11.2 µM
SR leukemia
  GI50: 1.81 µM
  TGI: 3.24 µM
HCT-15 colon
  GI50: 1.19 µM
  TGI: 3.6 µM
OVCAR-3 ovarian
  GI50: 1.78 µM
  TGI: 3.31 µM
CAKI-1 renal
  GI50: 0.748 µM
  TGI: 2.06 µM
HT29 colon
  GI50: 1.48 µM
  TGI: 2.85 µM
SK-OV-3 ovarian
  GI50: 1.04 µM
  TGI: 5.7 µM
NCI-H460 NSCLC
  GI50: 1.79 µM
  TGI: 5.73 µM
A498 renal
  GI50: 1.54 µM
  TGI: 3.14 µM
EKVX NSCLC
  GI50: 3.12 µM
  TGI: 9.47 µM
MDA-MB-435 melanoma
  GI50: 2.45 µM
  TGI: 6.53 µM
CCRF-CEM leukemia
  GI50: 1.58 µM
  TGI: 2.94 µM
HCT-116 colon
  GI50: 1.28 µM
  TGI: 2.62 µM
DU-145 prostate
  GI50: 2.54 µM
  TGI: 11.9 µM
MCF7 breast
  GI50: 1.36 µM
  TGI: 3.8 µM
SF-539 CNS
  GI50: 1.28 µM
  TGI: 2.61 µM
TK-10 renal
  GI50: 3.11 µM
  TGI: 8.02 µM
SF-268 CNS
  GI50: 4.23 µM
  TGI: 13.1 µM
HOP-92 NSCLC
  GI50: 1.62 µM
  TGI: 4.86 µM
M14 melanoma
  GI50: 0.911 µM
  TGI: 2.15 µM
K-562 leukemia
  GI50: 1.35 µM
  TGI: 2.66 µM
BT-549 breast
  GI50: 1.58 µM
  TGI: 2.98 µM
SK-MEL-28 melanoma
  GI50: 1.66 µM
  TGI: 3.13 µM
SW-620 colon
  GI50: 1.7 µM
  TGI: 4.29 µM
PC-3 prostate
  GI50: 2.27 µM
  TGI: 7.54 µM
OVCAR-8 ovarian
  GI50: 2.35 µM
  TGI: 6.18 µM
A549 NSCLC
  GI50: 2.58 µM
  TGI: 6.97 µM
U251 glioblastoma
  GI50: 2.09 µM
  TGI: 5.09 µM
HS 578T breast
  GI50: 1.86 µM
  TGI: 3.73 µM
COLO 205 colon
  GI50: 3.18 µM
  TGI: 7.89 µM
MDA-MB-231 breast
  GI50: 2.22 µM
  TGI: 5.5 µM
SK-MEL-2 melanoma
  GI50: 1.29 µM
  TGI: 2.57 µM
OVCAR-4 ovarian
  GI50: 3.93 µM
  TGI: 8.44 µM
HOP-62 NSCLC
  GI50: 2.78 µM
  TGI: 8.28 µM
SF-295 CNS
  GI50: 5.25 µM
  TGI: 9.62 µM
LOX IMVI melanoma
  GI50: 1.39 µM
  TGI: 2.71 µM
ACHN renal
  GI50: 1.3 µM
  TGI: 3.06 µM
SNB-75 CNS
  GI50: 3.67 µM
  TGI: 8.24 µM
HL-60(TB) leukemia
  GI50: 0.892 µM
  TGI: 2.13 µM
